Source: patent US10294202B2, “Pyrrolidinones as herbicides” (FMC Corporation, priority 2013, dated 2019)

Tests used:
galium = test: Test C pre-/postemergence herbicide test; assay type: in vivo, Galium aparine
Procedure, shortened: (§1)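 Test compounds, formulated in a surfactant-containing non-phytotoxic solvent blend, are applied to seeded loam/sand soil (preemergence) and to young plants at the 1- to 4-leaf stage in peat-based medium (postemergence). Plants stay 13 to 15 days under greenhouse conditions, then are scored visually relative to controls, 0 = no effect, 100 = complete control.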

barnyardgrass = test: Test A pre-/postemergence herbicide test; assay type: in vivo, Echinochloa crus-galli
Procedure, shortened: (§2)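 Planted in loam–sand blend; treated the same day preemergence by directed soil spray, while separately grown plants at one- to two-leaf stage got postemergence spray. Compared visually with untreated controls after approximately 10 days; 100 means complete control.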

foxtail, giant = test: Test C pre-/postemergence herbicide test; assay type: in vivo, Setaria faberii
Procedure, shortened: as §1

ryegrass, Italian = test: Test C pre-/postemergence herbicide test; assay type: in vivo, Lolium multiflorum
Procedure, shortened: as §1

morningglory = test: Test C pre-/postemergence herbicide test; assay type: in vivo, Ipomoea coccinea
Procedure, shortened: as §1

crabgrass, large = test: Test C pre-/postemergence herbicide test; assay type: in vivo, Digitaria sanguinalis
Procedure, shortened: as §1

corn [1] = test: Test C pre-/postemergence herbicide test; assay type: in vivo, Zea mays
Procedure, shortened: as §1

soybean = test: Test C pre-/postemergence herbicide test; assay type: in vivo, Glycine max
Procedure, shortened: as §1

wheat (winter wheat) = test: Test C pre-/postemergence herbicide test; assay type: in vivo, Triticum aestivum
Procedure, shortened: as §1

johnsongrass = test: Test C pre-/postemergence herbicide test; assay type: in vivo, Sorghum halepense
Procedure, shortened: as §1

corn [2] = test: Test A pre-/postemergence herbicide test; assay type: in vivo, Zea mays; conditions: Postemergence
Procedure, shortened: as §2

pigweed = test: Test A pre-/postemergence herbicide test; assay type: in vivo, Amaranthus retroflexus
Procedure, shortened: as §2

wheat = test: Test A pre-/postemergence herbicide test; assay type: in vivo, Triticum aestivum; conditions: Postemergence
Procedure, shortened: as §2

[3] = Postemergence, 31 g ai/ha, scale 0 to 100 (0 no effect, 100 complete control)
[4] = Postemergence, 62 g ai/ha, scale 0 (no effect) to 100 (complete control)
[5] = Postemergence, 125 g ai/ha, scale 0 to 100 (0 no effect, 100 complete control)
[6] = Postemergence, 250 g ai/ha, scale 0 to 100 (0 no effect, 100 complete control)
[7] = Preemergence, 31 g ai/ha, scale 0 to 100, 0 is no effect and 100 is complete control
[8] = Preemergence, 62 g ai/ha, scale 0 to 100 (0 no effect, 100 complete control)
[9] = Preemergence, 125 g ai/ha, scale 0 to 100 (0 no effect, 100 complete control)
[10] = Postemergence, 125 g ai/ha, visual rating on 0 to 100 scale (0 no effect, 100 complete control), approx. 10 days
[11] = Postemergence, 500 g ai/ha, 0 to 100 scale (0 no effect, 100 complete control)
[12] = Preemergence, 125 g ai/ha, 0 to 100 scale where 0 is no effect and 100 is complete control
[13] = Preemergence, 500 g ai/ha, visual rating on 0 to 100 scale (0 no effect, 100 complete control)
[14] = 125 g ai/ha, visual rating on 0 to 100 scale (0 no effect, 100 complete control), approx. 10 days
[15] = 500 g ai/ha, 0 to 100 scale (0 no effect, 100 complete control)
[16] = Preemergence, 16 g ai/ha, scale 0 to 100
[17] = Postemergence, 16 g ai/ha, scale 0 to 100 (0 no effect, 100 complete control)

Structure (SMILES): CN1CC(c2ccc(F)c(F)c2)C(C(=O)Nc2ccccc2F)C1=O (stereo not drawn) [Compound 302]
- Plant response rating, Galium (galium; [3]): 10
- Plant response rating, Galium (galium; [4]): 15
- Plant response rating, Galium (galium; [5]): 10
- Plant response rating, Galium (galium; [6]): 45
- Galium plant response rating (galium; [7]): 0
- Galium plant response rating (galium; [8]): 5
- Plant response rating, Galium (galium; [9]): 85
- Plant response rating (scale of 0 to 100), Galium (galium; Preemergence, 250 g ai/ha): 85
- Plant response rating, Barnyardgrass (barnyardgrass; [10]): 90
- Plant response rating, Barnyardgrass (barnyardgrass; [11]): 90
- Plant response rating, Barnyardgrass (barnyardgrass; [12]): 90
- Barnyardgrass plant response rating (barnyardgrass; [13]): 90
- Plant response rating, Foxtail, Giant (foxtail, giant; [3]): 0
- Plant response rating, Foxtail, Giant (foxtail, giant; [4]): 45
- Plant response rating, Foxtail, Giant (foxtail, giant; [5]): 80
- Plant response rating, Foxtail, Giant (foxtail, giant; [6]): 80
- Foxtail, Giant plant response rating (foxtail, giant; [7]): 90
- Foxtail, Giant plant response rating (foxtail, giant; [8]): 95
- Plant response rating, Foxtail, Giant (foxtail, giant; [9]): 100
- Plant response rating (scale of 0 to 100), Foxtail, Giant (foxtail, giant; Preemergence, 250 g ai/ha): 100
- Plant response rating, Ryegrass, Italian (ryegrass, Italian; [3]): 0
- Plant response rating, Ryegrass, Italian (ryegrass, Italian; [4]): 0
- Plant response rating, Ryegrass, Italian (ryegrass, Italian; [5]): 0
- Plant response rating, Ryegrass, Italian (ryegrass, Italian; [6]): 0
- Ryegrass, Italian plant response rating (ryegrass, Italian; [7]): 0
- Ryegrass, Italian plant response rating (ryegrass, Italian; [8]): 0
- Plant response rating, Ryegrass, Italian (ryegrass, Italian; [9]): 5
- Plant response rating (scale of 0 to 100), Ryegrass, Italian (ryegrass, Italian; Preemergence, 250 g ai/ha): 40
- Plant response rating, Morningglory (morningglory; [3]): 10
- Plant response rating, Morningglory (morningglory; [4]): 15
- Plant response rating, Morningglory (morningglory; [5]): 50
- Plant response rating, Morningglory (morningglory; [6]): 25
- Morningglory plant response rating (morningglory; [7]): 0
- Morningglory plant response rating (morningglory; [8]): 0
- Plant response rating, Morningglory (morningglory; [9]): 0
- Plant response rating (scale of 0 to 100), Morningglory (morningglory; Preemergence, 250 g ai/ha): 0
- Plant response rating, Crabgrass, Large (crabgrass, large; [3]): 0
- Plant response rating, Crabgrass, Large (crabgrass, large; [4]): 50
- Plant response rating, Crabgrass, Large (crabgrass, large; [5]): 70
- Plant response rating, Crabgrass, Large (crabgrass, large; [6]): 85
- Crabgrass, Large plant response rating (crabgrass, large; [7]): 95
- Crabgrass, Large plant response rating (crabgrass, large; [8]): 98
- Plant response rating, Crabgrass, Large (crabgrass, large; [9]): 100
- Plant response rating (scale of 0 to 100), Crabgrass, Large (crabgrass, large; Preemergence, 250 g ai/ha): 100
- Plant response rating, Corn (corn [1]; [3]): 0
- Plant response rating, Corn (corn [1]; [4]): 0
- Plant response rating, Corn (corn [1]; [5]): 0
- Plant response rating, Corn (corn [1]; [6]): 0
- Corn plant response rating (corn [1]; [7]): 0
- Corn plant response rating (corn [1]; [8]): 0
- Plant response rating, Corn (corn [1]; [9]): 0
- Plant response rating (scale of 0 to 100), Corn (corn [1]; Preemergence, 250 g ai/ha): 50
- Plant response rating, Soybean (soybean; [3]): 0
- Plant response rating, Soybean (soybean; [4]): 0
- Plant response rating, Soybean (soybean; [5]): 0
- Plant response rating, Soybean (soybean; [6]): 65
- Soybean plant response rating (soybean; [7]): 0
- Soybean plant response rating (soybean; [8]): 30
- Plant response rating, Soybean (soybean; [9]): 0
- Plant response rating (scale of 0 to 100), Soybean (soybean; Preemergence, 250 g ai/ha): 0
- Plant response rating, Wheat (wheat (winter wheat); [3]): 0
- Plant response rating, Wheat (wheat (winter wheat); [4]): 0
- Plant response rating, Wheat (wheat (winter wheat); [5]): 0
- Plant response rating, Wheat (wheat (winter wheat); [6]): 0
- Wheat plant response rating (wheat (winter wheat); [7]): 0
- Wheat plant response rating (wheat (winter wheat); [8]): 5
- Plant response rating (scale of 0 to 100), Wheat (wheat (winter wheat); Preemergence, 250 g ai/ha): 30
- Plant response rating, Johnsongrass (johnsongrass; [3]): 0
- Plant response rating, Johnsongrass (johnsongrass; [4]): 0
- Plant response rating, Johnsongrass (johnsongrass; [5]): 0
- Plant response rating, Johnsongrass (johnsongrass; [6]): 10
- Johnsongrass plant response rating (johnsongrass; [7]): 0
- Johnsongrass plant response rating (johnsongrass; [8]): 15
- Plant response rating, Johnsongrass (johnsongrass; [9]): 45
- Plant response rating (scale of 0 to 100), Johnsongrass (johnsongrass; Preemergence, 250 g ai/ha): 65
- Plant response rating, Corn (corn [2]; [14]): 0
- Plant response rating, Corn (corn [2]; [15]): 40
- Plant response rating, Pigweed (pigweed; [10]): 0
- Plant response rating, Pigweed (pigweed; [11]): 10
- Plant response rating, Pigweed (pigweed; [12]): 10
- Pigweed plant response rating (pigweed; [13]): 60
- Plant response rating, Wheat (wheat; [14]): 0
- Plant response rating, Wheat (wheat; [15]): 50

Structure (SMILES): CN1CC(c2ccc(C(F)(F)F)cc2)C(C(=O)Nc2ccccc2F)C1=O (stereo not drawn) [Compound 304]
- Galium plant response rating (galium; [7]): 85
- Galium plant response rating (galium; [8]): 95
- Plant response rating, Galium (galium; [9]): 85
- Plant response rating, Galium (galium; [16]): 100
- Plant response rating, Barnyardgrass (barnyardgrass; [10]): 80
- Plant response rating, Barnyardgrass (barnyardgrass; [11]): 90
- Plant response rating, Barnyardgrass (barnyardgrass; [12]): 90
- Barnyardgrass plant response rating (barnyardgrass; [13]): 90
- Plant response rating, Foxtail, Giant (foxtail, giant; [17]): 0
- Plant response rating, Foxtail, Giant (foxtail, giant; [3]): 0
- Plant response rating, Foxtail, Giant (foxtail, giant; [4]): 10
- Plant response rating, Foxtail, Giant (foxtail, giant; [5]): 45
- Foxtail, Giant plant response rating (foxtail, giant; [7]): 90
- Foxtail, Giant plant response rating (foxtail, giant; [8]): 95
- Plant response rating, Foxtail, Giant (foxtail, giant; [9]): 95
- Plant response rating, Foxtail, Giant (foxtail, giant; [16]): 90
- Plant response rating, Ryegrass, Italian (ryegrass, Italian; [17]): 0
- Plant response rating, Ryegrass, Italian (ryegrass, Italian; [3]): 0
- Plant response rating, Ryegrass, Italian (ryegrass, Italian; [4]): 5
- Plant response rating, Ryegrass, Italian (ryegrass, Italian; [5]): 0
- Ryegrass, Italian plant response rating (ryegrass, Italian; [7]): 30
- Ryegrass, Italian plant response rating (ryegrass, Italian; [8]): 75
- Plant response rating, Ryegrass, Italian (ryegrass, Italian; [9]): 40
- Plant response rating, Ryegrass, Italian (ryegrass, Italian; [16]): 10
- Plant response rating, Morningglory (morningglory; [17]): 20
- Plant response rating, Morningglory (morningglory; [3]): 50
- Plant response rating, Morningglory (morningglory; [4]): 20
- Plant response rating, Morningglory (morningglory; [5]): 45
- Morningglory plant response rating (morningglory; [7]): 5
- Morningglory plant response rating (morningglory; [8]): 50
- Plant response rating, Morningglory (morningglory; [9]): 40
- Plant response rating, Morningglory (morningglory; [16]): 0
- Plant response rating, Crabgrass, Large (crabgrass, large; [17]): 10
- Plant response rating, Crabgrass, Large (crabgrass, large; [3]): 10
- Plant response rating, Crabgrass, Large (crabgrass, large; [4]): 60
- Plant response rating, Crabgrass, Large (crabgrass, large; [5]): 80
- Crabgrass, Large plant response rating (crabgrass, large; [7]): 95
- Crabgrass, Large plant response rating (crabgrass, large; [8]): 95
- Plant response rating, Crabgrass, Large (crabgrass, large; [9]): 98
- Plant response rating, Crabgrass, Large (crabgrass, large; [16]): 90
- Plant response rating, Corn (corn [1]; [17]): 0
- Plant response rating, Corn (corn [1]; [3]): 0
- Plant response rating, Corn (corn [1]; [4]): 0
- Plant response rating, Corn (corn [1]; [5]): 5
- Corn plant response rating (corn [1]; [7]): 0
- Corn plant response rating (corn [1]; [8]): 40
- Plant response rating, Corn (corn [1]; [9]): 65
- Plant response rating, Corn (corn [1]; [16]): 0
- Plant response rating, Soybean (soybean; [17]): 0
- Plant response rating, Soybean (soybean; [3]): 0
- Plant response rating, Soybean (soybean; [4]): 5
- Plant response rating, Soybean (soybean; [5]): 10
- Soybean plant response rating (soybean; [7]): 0
- Soybean plant response rating (soybean; [8]): 0
- Plant response rating, Soybean (soybean; [9]): 0
- Plant response rating, Soybean (soybean; [16]): 0
- Plant response rating, Wheat (wheat (winter wheat); [17]): 0
- Plant response rating, Wheat (wheat (winter wheat); [3]): 0
- Plant response rating, Wheat (wheat (winter wheat); [4]): 0
- Plant response rating, Wheat (wheat (winter wheat); [5]): 0
- Wheat plant response rating (wheat (winter wheat); [7]): 40
- Wheat plant response rating (wheat (winter wheat); [8]): 50
- Plant response rating, Wheat (wheat (winter wheat); [16]): 5
- Plant response rating, Johnsongrass (johnsongrass; [17]): 0
- Plant response rating, Johnsongrass (johnsongrass; [3]): 0
- Plant response rating, Johnsongrass (johnsongrass; [4]): 0
- Plant response rating, Johnsongrass (johnsongrass; [5]): 0
- Johnsongrass plant response rating (johnsongrass; [7]): 0
- Johnsongrass plant response rating (johnsongrass; [8]): 35
- Plant response rating, Johnsongrass (johnsongrass; [9]): 35
- Plant response rating, Johnsongrass (johnsongrass; [16]): 0
- Plant response rating, Corn (corn [2]; [14]): 30
- Plant response rating, Corn (corn [2]; [15]): 70
- Plant response rating, Pigweed (pigweed; [10]): 40
- Plant response rating, Pigweed (pigweed; [11]): 60
- Plant response rating, Pigweed (pigweed; [12]): 70
- Pigweed plant response rating (pigweed; [13]): 80
- Plant response rating, Wheat (wheat; [14]): 40
- Plant response rating, Wheat (wheat; [15]): 60
